{"source": "patent US10525041B2", "about": "“Fluoroalkyl-substituted aryltriazole derivatives and uses thereof” (BAYER PHARMA AKTIENGESELLSCHAFT, priority 2016, dated 2020)", "key": {"[1]": {"target": "T1, human V2 receptor (Homo sapiens, UniProt P30518)", "T1 construct": "expressed in transfected cells; host or cells: CHO K1 (ATCC) line expressing firefly luciferase under a CRE-responsive promoter", "T1 sequence (P30518 whole entry)": "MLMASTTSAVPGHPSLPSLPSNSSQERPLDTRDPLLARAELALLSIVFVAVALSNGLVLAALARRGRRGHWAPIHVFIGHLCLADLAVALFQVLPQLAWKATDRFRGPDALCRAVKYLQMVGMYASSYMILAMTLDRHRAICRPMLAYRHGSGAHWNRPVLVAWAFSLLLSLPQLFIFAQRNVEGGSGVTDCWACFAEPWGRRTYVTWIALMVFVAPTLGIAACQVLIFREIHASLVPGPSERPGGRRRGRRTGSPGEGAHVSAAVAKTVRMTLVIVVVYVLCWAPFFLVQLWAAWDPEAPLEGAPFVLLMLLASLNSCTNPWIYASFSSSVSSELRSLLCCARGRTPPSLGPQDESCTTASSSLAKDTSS", "test": "Cellular in vitro assay for vasopressin receptor activity, V2 cell line (CRE-luciferase)", "format": "cell-based", "details": "CHO cell line transfected with human V2 receptor; agonist [Arg8]-vasopressin at EC50 concentration, 3 hours; read-out: IC50hV2"}, "[2]": {"target": "T2, human V1a receptor (Homo sapiens, UniProt P37288)", "T2 construct": "expressed in transfected cells; host or cells: CHO K1 (ATCC), also stably transfected with a modified aequorin", "T2 sequence (P37288 whole entry)": "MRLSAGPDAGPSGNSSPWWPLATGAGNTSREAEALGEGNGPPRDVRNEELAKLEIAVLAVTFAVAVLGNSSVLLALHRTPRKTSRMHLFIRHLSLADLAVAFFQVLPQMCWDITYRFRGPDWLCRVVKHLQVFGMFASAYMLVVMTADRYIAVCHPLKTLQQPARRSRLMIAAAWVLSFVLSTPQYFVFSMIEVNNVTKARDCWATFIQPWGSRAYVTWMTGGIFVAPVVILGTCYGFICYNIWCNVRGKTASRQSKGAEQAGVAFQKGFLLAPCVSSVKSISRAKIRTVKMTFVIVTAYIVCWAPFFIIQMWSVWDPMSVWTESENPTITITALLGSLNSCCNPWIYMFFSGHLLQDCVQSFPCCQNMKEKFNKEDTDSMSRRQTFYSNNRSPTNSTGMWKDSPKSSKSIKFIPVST", "test": "Cellular in vitro assay for vasopressin receptor activity, V1a cell line (aequorin luminescence)", "format": "cell-based", "details": "for IC50: CHO cell line transfected with human V1a receptor, agonist [Arg8]-vasopressin at EC50 concentration, read-out: IC50hV1a; for ratio IC50 hV2/hV1a: ratio of the IC50 on human V2 to the IC50 on human V1a", "summary_of_the_method": "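CHO K1 cells stably expressing human V1a receptor with aequorin photoprotein, loaded overnight with coelenterazine. Compounds preincubated 10 min at various concentrations, then challenged with [Arg^8]-vasopressin at EC50 concentration. Calcium-driven luminescence read immediately; IC50 values derived.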"}}}
{"smiles": "CC(F)(F)c1nc(Cn2nc(-c3ccc(Cl)cc3)n(C[C@H](O)C(F)(F)F)c2=O)nn1-c1ccccc1OC(F)(F)F", "note": "[Example 61, 5-(4-Chlorophenyl)-2-({5-(1,1-difluoroethyl)-1-[2-(trifluoromethoxy)phenyl]-1H-1,2,4-triazol-3-yl}methyl)-4-[(2S)-3,3,3-trifluoro-2-hydroxypropyl]-2,4-dihydro-3H-1,2,4-triazol-3-one]", "values": [{"measurement": "IC50", "setting": "[1]", "result": 44.5, "unit": "nM"}, {"measurement": "IC50", "setting": "[2]", "result": 4.15, "unit": "nM"}, {"measurement": "ratio IC50 hV2/hV1a", "setting": "[2]", "result": 10.7}]}
{"smiles": "CCc1ccccc1-n1nc(Cn2nc(-c3ccc(Cl)cc3)n(C[C@H](O)C(F)(F)F)c2=O)nc1C(C)(F)F", "note": "[Example 62, 5-(4-Chlorophenyl)-2-{[5-(1,1-difluoroethyl)-1-(2-ethylphenyl)-1H-1,2,4-triazol-3-yl]methyl}-4-[(2S)-3,3,3-trifluoro-2-hydroxypropyl]-2,4-dihydro-3H-1,2,4-triazol-3-one]", "values": [{"measurement": "IC50", "setting": "[1]", "result": 2.25, "unit": "nM"}, {"measurement": "IC50", "setting": "[2]", "result": 2.2, "unit": "nM"}, {"measurement": "ratio IC50 hV2/hV1a", "setting": "[2]", "result": 1.0}]}
{"smiles": "CC(F)(F)c1nc(Cn2nc(-c3ccc(Cl)cc3)n(C[C@H](O)C(F)(F)F)c2=O)nn1-c1ccccc1OC(F)F", "note": "[Example 63, 5-(4-Chlorophenyl)-2-({5-(1,1-difluoroethyl)-1-[2-(difluoromethoxy)phenyl]-1H-1,2,4-triazol-3-yl}methyl)-4-[(2S)-3,3,3-trifluoro-2-hydroxypropyl]-2,4-dihydro-3H-1,2,4-triazol-3-one]", "values": [{"measurement": "IC50", "setting": "[1]", "result": 6.95, "unit": "nM"}, {"measurement": "IC50", "setting": "[2]", "result": 2.1, "unit": "nM"}, {"measurement": "ratio IC50 hV2/hV1a", "setting": "[2]", "result": 3.3}]}
{"smiles": "Cc1ccccc1-n1nc(Cn2nc(-c3ccc(Cl)cc3)n(C[C@H](O)C(F)(F)F)c2=O)nc1C(C)(F)F", "note": "[Example 64, 5-(4-Chlorophenyl)-2-{[5-(1,1-difluoroethyl)-1-(2-methylphenyl)-1H-1,2,4-triazol-3-yl]methyl}-4-[(2S)-3,3,3-trifluoro-2-hydroxypropyl]-2,4-dihydro-3H-1,2,4-triazol-3-one]", "values": [{"measurement": "IC50", "setting": "[1]", "result": 1.7, "unit": "nM"}, {"measurement": "IC50", "setting": "[2]", "result": 1.06, "unit": "nM"}, {"measurement": "ratio IC50 hV2/hV1a", "setting": "[2]", "result": 1.6}]}
{"smiles": "CC(F)(F)c1nc(Cn2nc(-c3ccc(Cl)cc3)n(C[C@H](O)C(F)(F)F)c2=O)nn1-c1ccccc1[N+](=O)[O-]", "note": "[Example 65, 5-(4-Chlorophenyl)-2-{[5-(1,1-difluoroethyl)-1-(2-nitrophenyl)-1H-1,2,4-triazol-3-yl]methyl}-4-[(2S)-3,3,3-trifluoro-2-hydroxypropyl]-2,4-dihydro-3H-1,2,4-triazol-3-one]", "values": [{"measurement": "IC50", "setting": "[1]", "result": 11.4, "unit": "nM"}, {"measurement": "IC50", "setting": "[2]", "result": 3.05, "unit": "nM"}, {"measurement": "ratio IC50 hV2/hV1a", "setting": "[2]", "result": 3.7}]}
{"smiles": "CC(F)(F)c1nc(Cn2nc(-c3ccc(Cl)cc3)n(C[C@H](O)C(F)(F)F)c2=O)nn1-c1ccccc1S(N)(=O)=O", "note": "[Example 66, 2-[3-({3-(4-Chlorophenyl)-5-oxo-4-[(2S)-3,3,3-trifluoro-2-hydroxypropyl]-4,5-dihydro-1H-1,2,4-triazol-1-yl}methyl)-5-(1,1-difluoroethyl)-1H-1,2,4-triazol-1-yl]benzenesulfonamide]", "values": [{"measurement": "IC50", "setting": "[1]", "result": 340, "unit": "nM"}, {"measurement": "IC50", "setting": "[2]", "result": 58, "unit": "nM"}, {"measurement": "ratio IC50 hV2/hV1a", "setting": "[2]", "result": 5.9}]}
{"smiles": "CCOc1ccccc1-n1nc(Cn2nc(-c3ccc(Cl)cc3)n(C[C@H](O)C(F)(F)F)c2=O)nc1C(C)(F)F", "note": "[Example 67, 5-(4-Chlorophenyl)-2-{[5-(1,1-difluoroethyl)-1-(2-ethoxyphenyl)-1H-1,2,4-triazol-3-yl]methyl}-4-[(2S)-3,3,3-trifluoro-2-hydroxypropyl]-2,4-dihydro-3H-1,2,4-triazol-3-one]", "values": [{"measurement": "IC50", "setting": "[1]", "result": 7.85, "unit": "nM"}, {"measurement": "IC50", "setting": "[2]", "result": 1.8, "unit": "nM"}, {"measurement": "ratio IC50 hV2/hV1a", "setting": "[2]", "result": 4.4}]}
{"smiles": "CC(F)(F)c1nc(Cn2nc(-c3ccc(Cl)cc3)n(C[C@H](O)C(F)(F)F)c2=O)nn1-c1c(Cl)cccc1Cl", "note": "[Example 68, 5-(4-Chlorophenyl)-2-{[1-(2,6-dichlorophenyl)-5-(1,1-difluoroethyl)-1H-1,2,4-triazol-3-yl]methyl}-4-[(2S)-3,3,3-trifluoro-2-hydroxypropyl]-2,4-dihydro-3H-1,2,4-triazol-3-one]", "values": [{"measurement": "IC50", "setting": "[1]", "result": 4.23, "unit": "nM"}, {"measurement": "IC50", "setting": "[2]", "result": 3.3, "unit": "nM"}, {"measurement": "ratio IC50 hV2/hV1a", "setting": "[2]", "result": 1.3}]}
